Experimental data published in patent US4766151A, “Ethers and oxime ethers of alkylamino alcohols as medicaments and novel products, and processes for their preparation” (Laboratoires, P.O.S., priority 1982, dated 1988).
Counter-ions that a name gives are not always drawn.

Experiments:
[1] = biological target: T1, isolated trachea of a guinea pig (Cavia porcellus, UniProt Q8K4Z4); experiment: pA2 measurement of beta-blocking activity on the isolated trachea of a guinea pig; assay type: cell-based
T1 construct: isolated trachea of a guinea pig; from tissue; host or cells: guinea pig isolated trachea
Protocol: (§1) The PA2 is the co-logarithm of the concentration of antagonist in the presence of which it requires twice as much agonist as in its absence in order to achieve the same effect; see, on this subject: Calculation of the PAx, Technical Leaflet No. 16, J. Pharmacol. Paris 1971, 2, 3, 373-380. The PA2 was measured on the isolated auricle of a guinea pig and on the isolated trachea of a guinea pig. The product used by way of comparison is the following compound: [drawing 23]

[2] = biological target: T2, isolated auricle of a guinea pig (Cavia porcellus); experiment: pA2 measurement of beta-blocking activity on the isolated auricle of a guinea pig; assay type: cell-based; details: chronotropic
T2 construct: isolated auricle of a guinea pig; from tissue; host or cells: guinea pig isolated auricle (atrium)
Protocol: as §1

[3] = biological target: T3, isolated auricle of a guinea pig (Cavia porcellus, UniProt H0W3H1); experiment: as above; assay type: cell-based; details: inotropic
T3 construct: isolated auricle of a guinea pig; from tissue; host or cells: guinea pig isolated auricle (atrium)
Protocol: as §1

[4] = biological target: T4, isolated trachea of a guinea pig (Cavia porcellus); experiment: pA2 measurement of beta-blocking activity on the isolated trachea of a guinea pig; assay type: cell-based
T4 construct: isolated trachea of a guinea pig; from tissue; host or cells: guinea pig isolated trachea
Protocol: as §1

[5] = prior art; cited from earlier work

T2 sequence (H0W3H1 1-470): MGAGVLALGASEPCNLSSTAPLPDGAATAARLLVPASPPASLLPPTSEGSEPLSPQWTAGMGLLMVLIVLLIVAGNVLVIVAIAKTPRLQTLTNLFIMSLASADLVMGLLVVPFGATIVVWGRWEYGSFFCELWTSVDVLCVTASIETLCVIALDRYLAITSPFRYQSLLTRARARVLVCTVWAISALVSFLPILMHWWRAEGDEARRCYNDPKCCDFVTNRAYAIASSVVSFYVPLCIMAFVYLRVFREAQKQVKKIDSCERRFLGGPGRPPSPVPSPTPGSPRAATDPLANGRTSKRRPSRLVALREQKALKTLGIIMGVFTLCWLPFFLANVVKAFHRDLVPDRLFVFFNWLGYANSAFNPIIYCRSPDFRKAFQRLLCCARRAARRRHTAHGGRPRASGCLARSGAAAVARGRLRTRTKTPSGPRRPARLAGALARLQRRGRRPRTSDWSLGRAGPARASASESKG
T3 sequence (H0W3H1 1-470): as above
T1 sequence (Q8K4Z4 whole entry): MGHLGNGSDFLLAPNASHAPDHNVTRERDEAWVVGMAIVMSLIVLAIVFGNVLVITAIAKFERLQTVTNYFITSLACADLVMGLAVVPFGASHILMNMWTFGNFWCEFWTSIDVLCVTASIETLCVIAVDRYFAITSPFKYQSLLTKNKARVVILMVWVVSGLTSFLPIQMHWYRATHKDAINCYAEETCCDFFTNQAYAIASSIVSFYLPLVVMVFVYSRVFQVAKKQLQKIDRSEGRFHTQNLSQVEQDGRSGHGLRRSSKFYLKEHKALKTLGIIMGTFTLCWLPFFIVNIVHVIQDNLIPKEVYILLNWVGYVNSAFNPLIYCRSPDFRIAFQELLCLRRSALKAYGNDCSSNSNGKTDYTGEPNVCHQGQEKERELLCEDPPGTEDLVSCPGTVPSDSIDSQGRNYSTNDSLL
T4 sequence (Q8K4Z4 whole entry): as above

Row | Trachea pA2 [1] | Kb [2] | Kb [3] | Kb [4] | Compound | undesirable secondary effects in treatment of glaucomas [5]
1 | 4.96 | – | – | – | C=CC(C)(C)OCC(O)CNC(C)(C)C (stereo not drawn) [Comparison, reference compound] | –
2 | – | 2 nM | 1 nM | 0.912 nM | CC(=NOCC(O)CNC(C)(C)C)C1CC1 (stereo not drawn) [Compound No. 1, 1-N-tert.-Butylamino-3-(cyclopropyl-methylketoneoximino)-propan-2-ol] | –
3 | – | 5.01 nM | 7.24 nM | – | CC(C)(C)NCC(O)CON=C(C1CC1)C1CC1 (stereo not drawn) [Compound No. 2, 1-N-tert.-Butylamino-3-(dicyclopropyl-ketoneoximino)-propan-2-ol] | –
4 | 6.23 | 79.4 nM | – | – | CC(C)(C)NCC(O)COCC1CC1 (stereo not drawn) [compound 3, 1-N-tert.-Butylamino-3-cyclopropylmethoxy-propan-2-ol] | –
5 | – | – | – | – | CC(C)(C)NC[C@H](O)COc1nsnc1N1CCOCC1 [timolol maleate] | bronchial disorders (asthma) or cardiovascular disorders (orthostatic hypotension and slowing down of the pulse rate)
